Entries after “also recorded” stand apart in the source; their conditions may differ.
Assays:
HBV [1] = assay: Southern and Northern blot analyses of HBV DNA synthesis and capsid-associated pgRNA in the infection assay; format: cell-based, hepatitis B virus; conditions: cotreatment, 0.5-1 μM
Description: (§1) However, HBc is strongly arrested in the nucleus by about 150-fold at 9 dpi, when co-treated with compounds KPT-330 or KPT-335. These two drugs are CRM1 inhibitors. Green: HBc. Red: NTCP. Blue: DAPI. […] Briefly, the infected culture of HepG2-NTCP-AS cells are treated with KPT-335 (0.5-1 μM) at 0, 3, and 5 dpi continuously until cell harvesting. Media are collected for ELISA of HBsAg and HBeAg. Cells are harvested for further analysis by Southern blot (SB) and Northern blots (NB). […] The level of total cytoplasmic viral RNA is reduced moderately by treatment with SINE compounds (1 μM). Comparisons of relaxed circular (RC) DNA banding intensities are as described in FIGS. 1A-1B legend, and normalized here to the no drug treatment control. SS: […].
(§2) The results in FIGS. 1A-1B by genetic mutant analysis was also supported by the results from the CRM1 drug treatment experiment (FIGS. 2A-2F). KPT-330 and KPT-335 are known CRM1 inhibitors. In an HBV in vitro infection system, when KPT-330 or KPT-335 were added to the cell culture before or soon after the infection with HBV, HBc was strongly arrested in the nucleus by immunofluorescence microscopy (FIG. 2A). Relative to the control with no drug treatment, KPT-330 and KPT-335 could increase nuclear HBc by approximately 150-fold (FIG. 2B). HBsAg and HBeAg were HBV serum markers.

HBV [2] = assay: Intracellular WT-HBV capsid protein, capsid-associated viral RNA and DNA in the dose-response experiment; format: cell-based, hepatitis B virus; conditions: 0.5 μM
Description: (§3) FIGS. 6A and 6B show a cartoon illustration for the analysis methods of extracellular and intracellular HBV viral and subviral particles. […] Viral and subviral particles are separated and characterized by Southern and Western blot analyses. Anti-HBc and anti-HBs antibodies are used consecutively for the same Western blot filters. Southern blot is performed in a separate agarose gel which allows the differentiation of genome-containing (G^+) from genome-free (G^−) viral and subviral particles. […] Then, the RNA/DNA signals are analyzed by Northern blot and Southern blot. 3.5 kb pgRNA: full-length 3.5 kb pre-genomic RNA. RT RNA: reverse transcripted RNA.
(§4) This mutant secretes no naked capsids. V/NC: Virions/naked capsids.
(§5) HBV secreted a total of six different viral and subviral particles in hepatocyte cell culture (FIG. 5). The only infectious particles were the genome-containing virions, which contained envelope protein, capsids, and encapsidated relaxed circle DNA genome. In FIGS. 6A and 6B, a cartoon illustrated the analysis methods of extracellular and intracellular HBV viral and subviral particles. […] Adding drug at 1-day post infection was not effective in blocking virion secretion (FIG. 7C). The potential cytotoxicity of KPT-335 was evaluated using two different methods—Alamar Blue and CCK-8 assays (FIG. 8).

HuH-7 cells = assay: Cell proliferation by alamarBlue and CCK-8 assays; format: cell-based, human
Excerpt: as §5

HBV [3] = assay: HBV virion secretion assay, HuH-7 cells transfected with HBV replicon, native agarose gel with Western and Southern blot; format: cell-based, hepatitis B virus
Description: as §3, §4
An HBV replicon plasmid is transfected into HuH-7 human hepatoma cell line. SINE compound KPT-8602 is added to the transfected culture at 0 hr post-transfection (i.e., co-treatment). Extracellular media are collected on day 5 (120 hr) post-transfection. Assays for virion secretion are as described in FIG. 6A. Secretion of naked capsids is 100-fold (10 μM/0.1 μM) less sensitive to KPT-8602 treatment than virions.
as §5

HBV [4] = assay: ELISA of HBsAg and HBeAg in medium, time course of drug treatment in HBV infection system (HepG2-NTCP-AS cells); format: cell-based, hepatitis B virus
Description: as §1, §2

[5] = system: Kaposi's sarcoma-associated herpesvirus (KSHV); conditions: cited from earlier work
[6] = system: human cytomegalovirus (HCMV); conditions: by increasing the expression of type I interferon; cited from earlier work
[7] = drug and virus added at the same time (co-treatment), 0.5-1 μM

With `O=C(/C=C\n1cnc(-c2cc(C(F)(F)F)cc(C(F)(F)F)c2)n1)NNc1ccccn1` [KPT-335, Verdinexor] the “HBV DNA synthesis” value (HBV [1]) was “strongly inhibited”, the “HBV RNA encapsidation (cytoplasmic capsid-associated pgRNA)” value (HBV [1]) was “strongly inhibited” and the “formation of HBc capsids” value (HBV [1]) was “strongly inhibited”. The capsid protein (HBV [2]) was “no significant effect”, the “capsid-associated RNA (RNA encapsidation)” value (HBV [2]) was “no significant effect” and the anti-proliferation effect (HuH-7 cells; below 0.25 μM, alamarBlue and CCK-8) was “No significant anti-proliferation effect”. For the same compound, the HBV virion secretion (HBV [3]; 0.5 μM, co-treatment) was “almost completely block”, the “secretion of naked capsids, sensitivity in contrast to virions” value (HBV [3]; 0.1, 0.25, 0.5 and 1 μM) was “much less sensitive” and the blocking virion secretion (HBV [3]; drug added at 1-day post infection) was “not effective”. The “effect on HBV” value (HBV [4]; added at 3 or 5 dpi) was “no effect”, the “HBeAg in the medium by ELISA” value (HBV [4]; drug added at 3 or 5 dpi) was “no apparent effect” and the “HBsAg in the medium by ELISA” value (HBV [4]; drug added at 3 or 5 dpi) was “no apparent effect”. The “HBeAg in the medium by ELISA” value (HBV [4]; [7]) was “inhibit; also recorded: complete inhibition” and the “HBsAg in the medium by ELISA” value (HBV [4]; [7]) was “inhibit; also recorded: complete inhibition”.

In the case of `NC(=O)/C(=C/n1cnc(-c2cc(C(F)(F)F)cc(C(F)(F)F)c2)n1)c1cncnc1` [KPT-8602, Eltanexor], the “cytotoxicity, side-by-side comparison” value (HuH-7 cells) is reported as “less cytotoxic”, the HBV virion secretion (HBV [3]; 0.1 μM, co-treatment at 0 hr post-transfection, media collected day 5) is reported as “blocks; also recorded: nearly completely block” and the “inhibition of HBV virion secretion, side-by-side comparison” value (HBV [3]; 0.1, 0.25, 0.5 and 1 μM) is reported as “more inhibitory than KPT-335”. For the same compound, the “secretion of naked capsids, sensitivity in contrast to virions” value (HBV [3]; 0.1, 0.25, 0.5 and 1 μM) was “much less sensitive”, the “potency, side-by-side comparison” value (HBV [3]; HBV virion secretion, HuH-7) was “more potent” and the “secretion of naked capsids less sensitive than virions (10 μM/0.1 μM)” value (HBV [3]; HuH-7, co-treatment, day 5) was 100 fold. The “lytic replication of KSHV” value [5] was “reduced” and the “inhibition of human cytomegalovirus (HCMV)” value [6] was “inhibit”.
